From PubChem BioAssay AID588764 (Broad Institute, 2011)
Records with an inconclusive call do not appear. Active and inactive are the calls of the source. How the calls were made is not given here.

Biological target: Histone acetyltransferase RTT109 (Candida albicans (strain SC5314 / ATCC MYA-2876)) (UniProt Q5AAJ8)
Assay: Rtt109/Vps75 acetyltransferase inhibitor potency, dose response, biochemical, cherry-picked hits, plate reader (AID 588764)
Conditions: Rtt109/Vps75 HAT activity; for activity change, negative = inhibition: at 19.5 µM (top of the series)

Chain of Histone acetyltransferase RTT109 (Candida albicans (strain SC5314 / ATCC MYA-2876)) (Q5AAJ8 whole entry, looked up): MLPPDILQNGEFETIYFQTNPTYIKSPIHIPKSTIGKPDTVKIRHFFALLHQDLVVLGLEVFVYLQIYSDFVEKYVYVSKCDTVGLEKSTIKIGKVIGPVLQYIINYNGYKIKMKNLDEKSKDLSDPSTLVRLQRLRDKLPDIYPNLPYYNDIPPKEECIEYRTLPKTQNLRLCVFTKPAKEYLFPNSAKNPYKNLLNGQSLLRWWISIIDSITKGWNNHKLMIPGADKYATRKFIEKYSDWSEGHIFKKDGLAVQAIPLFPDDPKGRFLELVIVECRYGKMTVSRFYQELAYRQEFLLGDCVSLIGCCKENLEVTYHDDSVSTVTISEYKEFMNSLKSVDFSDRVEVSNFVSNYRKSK

Compound | activity change, negative = inhibition | AC50
CCOC(=O)C(C)N1C(=O)S/C(=C/c2ccc3c(c2)n(C)c(=O)n3C)C1=O (centres undefined) | inactive | 
C#CCOCCOCCOCCNc1nc(N2CCN(C(=O)[C@H](CCCN=C(N)N)n3cc(C(N)[C@@H](C)CC)nn3)CC2)nc(N2CCN(C(=O)[C@H](CCCCN)n3cc([C@@H](N)[C@H](C)CC)nn3)CC2)n1 (some centres undefined) | inactive | 
O=C(O)c1ccccc1NS(=O)(=O)c1cccc(-n2sc3ccccc3c2=O)c1 |  | 3.49 µM
COc1ccccc1NC(=O)CSC(N)=O | inactive | 
C#CCOCCOCCOCCNc1nc(N2CCN(C(=O)[C@H](CCCN=C(N)N)n3cc(C(N)[C@@H](C)CC)nn3)CC2)nc(N2CCN(C(=O)[C@H](CCCCN)n3cc([C@@H](N)CC(N)=O)nn3)CC2)n1 (some centres undefined) | inactive | 
Cc1cc(Cl)c(S(=O)(=O)N2CCCC2)cc1OCC(N)=O | inactive | 
Cc1ccc(C(=O)NCCCNC(=O)COc2ccc(C)c(C)c2)cn1 | inactive | 
O=C1Cc2ccccc2Sc2c(OCCN3CCCCC3)cccc21 | inactive | 
O=C(CNC(=O)c1cccc(Br)c1)N/N=C/c1cccs1 | inactive | 
CN(C(=O)CCc1nc(-c2ccccc2F)no1)c1ccccc1 | inactive | 
CCc1nnc(NC(=O)CN2C(=O)c3ccccc3C2=O)s1 | inactive | 
CC1CCCCC1N(C)C1CCN(C(=O)CNC(=O)/C=C/c2cccc(Cl)c2)CC1 (centres undefined) | inactive | 
O=C(Nc1ccc(O)c(-c2nc3ccccc3s2)c1)c1cc(=O)c2ccccc2o1 | inactive | 
Cc1ccc2nc(N(CCCN(C)C)C(=O)c3ccc4c(c3)CCCC4)sc2c1 | inactive | 
C[C@H]1CC[C@H]2NCCN[C@H]2C1 | inactive | 
Fc1ccccc1C1CC(c2ccco2)=Nc2ccccc2S1 (centres undefined) | inactive | 
O=C1COc2ccc(C(=O)c3ccccc3C(=O)NCc3ccco3)cc2N1 | inactive | 
Cc1ccc(-n2c(O)c(C=NCc3ccccn3)c3ccccc3c2=O)cc1C | inactive | 
O=C(CCC(=O)OCC(=O)c1ccc([N+](=O)[O-])cc1)Nc1ccccc1Cl |  | 8.57 µM
Cc1nn(C2CCS(=O)(=O)C2)c2nc(C3CC3)cc(C(=O)Nc3ccc(C(N)=O)cc3)c12 (centres undefined) | inactive | 
CCOC(=O)/C=C/C(=O)Nc1cccc([N+](=O)[O-])c1 |  | 5.91 µM
O=C(C[n+]1cc(-c2ccc(Cl)c(Cl)c2)n2c1CCC2)N1c2ccccc2Sc2ccccc21 | inactive | 
Clc1nc(Nc2ccccc2)nc(Nc2ccccc2)n1 | inactive | 
CCOC(=O)c1c(C)n(-c2ccc(C)cc2)c2ccc(OCC(O)CNCC3CCCO3)cc12 (centres undefined) | inactive | 
CN(CC(=O)Nc1ccc(F)cc1)C(=O)COc1ccccc1Cc1ccccc1 | inactive | 

Compound | activity change, negative = inhibition | AC50
Cc1cc(NC(=O)CCCn2nc([N+](=O)[O-])c(Cl)c2C)no1 | inactive | 
COc1ccc(OC)c2sc(N(CCCN(C)C)C(=O)CCS(=O)(=O)c3ccccc3)nc12 |  | 20.1 µM
O=C1Nc2cc(C(=O)NCCCN3CCCC3)ccc2S/C1=C\c1ccccc1 | inactive | 
COc1cccc(OC)c1C(=O)Nc1cccc(-c2ccc(N3CCOCC3)nn2)c1 | inactive | 
O=C(CSC1=NC2(CCCCC2)N=C1c1ccccc1)Nc1ccc2c(c1)OCCO2 | inactive | 
CCc1ccccc1NC(=O)C1CCN(C(=O)c2ccc([N+](=O)[O-])cc2)CC1 | inactive | 
CCCCCCCCCCCCn1ccc(=N)cc1 | inactive | 
CC1=C(C)/C(=N\OS(=O)(=O)c2ccc(C)cc2)C=CC1=O |  | 8.6 µM
CN(C)CCCN(C(=O)CCOc1ccccc1)c1nc2c(F)cccc2s1 | inactive | 
CC(C)(C)c1cc(C(c2cccnc2)N2CCN(CCO)CC2)cc(C(C)(C)C)c1O (centres undefined) |  | 9.87 µM
CCCCS(=O)(=O)/C=C\C=C/S(=O)(=O)CCCC |  | 7.19 µM
Cc1nnc(SC2CC(=O)N(c3ccccc3)C2=O)s1 (centres undefined) |  | 17.5 µM
N=c1n(CCN2CCCCC2)c2ccccc2n1CC(O)c1ccc(Cl)c(Cl)c1 (centres undefined) | inactive | 
Cc1ccc2sc(NNC(=O)C3=COCCO3)nc2c1C | inactive | 
O=C(c1nnsc1S(=O)c1ccc(Cl)cc1)N1CCOCC1 (centres undefined) |  | 6.04 µM
Cc1ccc(S(=O)(=O)/N=C2\C=C(NS(=O)(=O)c3ccccc3)C(=O)c3ccccc32)cc1 | inactive | 
CC(=O)Nc1nnc(CCS(=O)(=O)c2ccc(C)c(C)c2)s1 | inactive | 
CCOc1ccc(S(=O)(=O)NCCC(=O)Nc2cccc(C(=O)OC)c2)cc1 | inactive | 
CCOC(=O)/C=C/S(=O)(=O)c1ccc(NC(C)=O)cc1 |  | 5.88 µM
O=c1c2ccccc2sn1-c1cc(S(=O)(=O)N2CCOCC2)ccc1N1CCOCC1 |  | 3.78 µM
CC(C)C[C@@H]1CN=C(N)N1C[C@@H]1CCCN1C[C@H](C)N1C[C@@H](Cc2ccccc2)N(CCc2ccc(Cl)c(Cl)c2)C1=N | inactive | 
COc1ccc(N2CCN(C(=O)CNC(=O)Cc3ccccc3)CC2)cc1 | inactive | 
O=C(Nc1ccc(Oc2cccnc2)cc1)C1CCN(Cc2cc(Cl)ccc2O)CC1 | inactive | 
Cc1ccc(NC(=O)Cn2sc3nc(C)cc(C)c3c2=O)c(Cl)c1 |  | 0.831 µM
